Values of other authors as cited in patent US20080226713A1, “Controlled Release Pharmaceutical Compositions of Tolperisone for Oral Administration” (priority 2004, published 2008).
Like-named read-outs stand apart in the source and are kept apart here.

Experiments:
[1] = JP-A-53-40779
[2] = rat

extent of in-vivo inversion into the other enantiomer [2]	Compound	pharmacological effect ([1]; listed as R-tolperisone)	pharmacological effect ([1]; listed as S-tolperisone)
	Cc1ccc(C(=O)C(C)CN2CCCCC2)cc1 (stereo not drawn) [R(−)tolperisone]	muscle-relaxing effect	
up to 20%	Cc1ccc(C(=O)C(C)CN2CCCCC2)cc1 (stereo not drawn) [S(+)tolperisone]		vaso- or bronchodilatory effect
